Earlier results as cited in patent publication US20110236538A1, “CHITIN DERIVATIVE AND NATURAL SWEETENER CONJUGATE FOR CONTROLLING INGESTED FAT IN HUMANS AND HAVING SWEETENING PROPERTIES” (priority 2008, published 2011).

Settings: successive lines = successive pKa of di- and trivalent acids

O=C(O)C(Cl)(Cl)Cl [Trichloroacetic]
pKa (25° C.): 0.70
